ChEMBL document CHEMBL2303647, “Data associated with the publication PLoS ONE, 8(3), e57888, (2013) PMID: 23505445. Compounds: GSK PKIS; Assays: NIH NCATS”

Tests used:
[1] = biological target: Luciferin 4-monooxygenase (Photinus pyralis, UniProt P08659)
Description: GSK_PKIS: Inhibition of Firefly Luciferase (Data from PubChem: AID 652016) [NIH NCATS]

[2] = biological target: T1, Coelenterazine h 2-monooxygenase (Renilla reniformis, UniProt P27652)
T1 sequence (P27652 whole entry): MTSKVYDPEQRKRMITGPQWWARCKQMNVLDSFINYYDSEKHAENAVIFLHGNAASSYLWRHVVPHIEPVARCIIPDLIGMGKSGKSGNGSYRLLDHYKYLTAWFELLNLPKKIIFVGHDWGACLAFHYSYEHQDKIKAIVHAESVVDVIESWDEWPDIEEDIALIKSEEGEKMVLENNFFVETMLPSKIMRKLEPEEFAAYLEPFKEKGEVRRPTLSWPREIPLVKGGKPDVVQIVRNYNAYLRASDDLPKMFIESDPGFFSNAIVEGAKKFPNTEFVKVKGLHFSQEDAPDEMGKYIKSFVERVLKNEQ
Description: GSK_PKIS: Inhibition of Sea Pansy Luciferase (Data from PubChem: AID 652015) [NIH NCATS]

Luciferin 4-monooxygenase, sequence (P08659 whole entry): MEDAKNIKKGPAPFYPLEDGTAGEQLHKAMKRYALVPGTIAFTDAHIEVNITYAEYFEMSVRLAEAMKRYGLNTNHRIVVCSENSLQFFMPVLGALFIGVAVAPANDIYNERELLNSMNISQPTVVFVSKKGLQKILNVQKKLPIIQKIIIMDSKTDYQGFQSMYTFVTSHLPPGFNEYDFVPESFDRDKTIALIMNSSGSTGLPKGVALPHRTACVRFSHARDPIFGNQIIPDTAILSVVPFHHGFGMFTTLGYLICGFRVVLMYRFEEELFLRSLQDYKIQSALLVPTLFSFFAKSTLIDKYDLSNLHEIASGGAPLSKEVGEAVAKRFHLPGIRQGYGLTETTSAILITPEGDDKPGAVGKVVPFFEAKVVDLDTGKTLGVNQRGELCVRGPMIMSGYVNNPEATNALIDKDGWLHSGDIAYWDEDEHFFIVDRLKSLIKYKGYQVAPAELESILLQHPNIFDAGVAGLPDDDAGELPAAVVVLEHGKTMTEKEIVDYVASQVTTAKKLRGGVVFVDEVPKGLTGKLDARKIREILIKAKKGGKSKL

Structure (SMILES) | AC50 ([1]; read-out: AC50) [µM] | AC50 ([2]; read-out: AC50) [µM] | AC50 [1] | AC50 [2]
O=C(NCC1CC1)c1ccc(-c2cccc(C(=O)NC3CC3)c2)cc1 [GW806776X] | 9.19 | 7.3 | – | –
CC(=O)NCc1cccc(C#Cc2cncnc2Nc2ccc(OCc3cccc(F)c3)c(Cl)c2)c1 [GW807930X] | – | – | Phenotype: Activator; Curve_Description: None | Phenotype: Inactive; Curve_Description: None
CCOc1ccc2c(-c3ccnc(Nc4cc(OC)cc(C(F)(F)F)c4)n3)cnn2n1 [GW807982X] | 14.6 | – | – | Phenotype: Activator; Curve_Description: None
COc1cccc(-n2nc(C)c3c(N/N=C(\C)c4ccncc4)ncnc32)c1 [GW809885X] | – | – | Phenotype: Inactive; Curve_Description: None | Phenotype: Inactive; Curve_Description: None
CN(c1ccc(NC(=O)Nc2c(Cl)cccc2Cl)cc1)c1ccnc(Nc2cccc(CS(C)(=O)=O)c2)n1 [GW809897X] | 0.58 | – | – | Phenotype: Inactive; Curve_Description: None
COc1ccc2c(-c3ccnc(Nc4cccc(OC(F)(F)F)c4)n3)cnn2n1 [GW810372X] | – | – | Phenotype: Inactive; Curve_Description: None | Phenotype: Activator; Curve_Description: None
CCOc1ccc2c(-c3ccnc(Nc4cccc(C(F)(F)F)c4)n3)cnn2n1 [GW811761X] | – | – | Phenotype: Inactive; Curve_Description: None | Phenotype: Inactive; Curve_Description: None
COc1cccc(-n2cnc3c(N/N=C/c4ccncc4)ncnc32)c1 [GW813360X] | 16.3 | – | – | Phenotype: Inactive; Curve_Description: None
COc1cccc(-c2c[nH]c3c(N/N=C/c4ccncc4)ncnc23)c1 [GW814408X] | 5.8 | – | – | Phenotype: Inactive; Curve_Description: None
COc1cccc(-n2ncc3c(N/N=C/c4cccc(F)c4)ncnc32)c1 [GW817394X] | 18.3 | – | – | Phenotype: Inactive; Curve_Description: None
COc1cccc(-n2ncc3c(N/N=C/c4ccc(F)cc4)ncnc32)c1 [GW817396X] | 32.6 | 0.0005 | – | –
FC(F)(F)c1cccc(Nc2nccc(-c3cnn4nc(-c5ccccc5)ccc34)n2)c1 [GW819077X] | – | – | Phenotype: Inactive; Curve_Description: None | Phenotype: Inactive; Curve_Description: None
Cc1ccc(-c2cc3c(NC(=O)C4CC4)ncnc3o2)cc1 [GW819230X] | 18.3 | – | – | Phenotype: Inactive; Curve_Description: None
Cc1ccc(C(=O)NC2CC2)cc1-c1ccc2[nH]ncc2c1 [GW820759X] | 18.3 | 20.6 | – | –
Cl.NS(=O)(=O)c1cccc(Nc2cc(-c3ccc(F)cc3)n[nH]2)c1 [GW824645A] | 11.6 | – | – | Phenotype: Inactive; Curve_Description: None
Fc1ccc(-c2nn3ncccc3c2-c2ccnc(Nc3ccc4c(c3)OCCO4)n2)cc1 [GW827099X] | 18.3 | – | – | Phenotype: Inactive; Curve_Description: None
FC(F)(F)c1cccc(-c2nn3ncccc3c2-c2ccnc(Nc3ccc4c(c3)OCCO4)n2)c1 [GW827102X] | 32.6 | – | – | Phenotype: Inactive; Curve_Description: None
COc1ccc(-c2nn3ncccc3c2-c2ccnc(Nc3cccc(C(F)(F)F)c3)n2)cc1 [GW827105X] | – | – | Phenotype: Inactive; Curve_Description: None | Phenotype: Inactive; Curve_Description: None
COc1ccc(-c2nn3ncccc3c2-c2ccnc(Nc3ccc4c(c3)OCCO4)n2)cc1 [GW827106X] | – | – | Phenotype: Inactive; Curve_Description: None | Phenotype: Inactive; Curve_Description: None
COc1ccc(-c2nn3ncccc3c2-c2ccnc(Nc3ccc(F)c(F)c3)n2)cc1 [GW827396X] | – | – | Phenotype: Inactive; Curve_Description: None | Phenotype: Inactive; Curve_Description: None
FC(F)(F)c1ccc(-c2nn3ncccc3c2-c2ccnc(Nc3ccc4c(c3)OCCO4)n2)cc1 [GW828525X] | – | – | Phenotype: Inactive; Curve_Description: None | Phenotype: Inactive; Curve_Description: None
Fc1ccc(Nc2nccc(-c3c(-c4ccc(C(F)(F)F)cc4)nn4ncccc34)n2)cc1F [GW828529X] | – | – | Phenotype: Inactive; Curve_Description: None | Phenotype: Inactive; Curve_Description: None
Clc1ccc(-c2nn3ncccc3c2-c2ccnc(Nc3ccccc3)n2)cc1 [GW829055X] | – | – | Phenotype: Inactive; Curve_Description: None | Phenotype: Inactive; Curve_Description: None
COc1ccc(-c2nn3ncccc3c2-c2ccnc(Nc3ccc(Cl)c(C(F)(F)F)c3)n2)cc1 [GW829115X] | – | – | Phenotype: Inactive; Curve_Description: None | Phenotype: Activator; Curve_Description: None

Structure (SMILES) | AC50 ([1]; read-out: AC50) [µM] | AC50 ([2]; read-out: AC50) [µM] | AC50 [1] | AC50 [2]
COc1cccc(/C=N/Nc2ncnc3c2cnn3-c2cccc(OC)c2)c1 [GW829874X] | – | – | Phenotype: Inactive; Curve_Description: None | Phenotype: Inactive; Curve_Description: None
COc1cccc(-n2ncc3c(N/N=C/c4ccc(C)cc4)ncnc32)c1 [GW829877X] | – | – | Phenotype: Inactive; Curve_Description: None | Phenotype: Inactive; Curve_Description: None
Cc1ccc2c(-c3ccnc(Nc4cccc(C(F)(F)F)c4)n3)c(-c3ccccc3)nn2n1 [GW829906X] | 41.1 | – | – | Phenotype: Inactive; Curve_Description: None
CN1CCN(C(=O)c2ccc(NC(=O)Nc3ccc(N(C)c4ccnc(Nc5ccc(CS(C)(=O)=O)cc5)n4)cc3)cc2)CC1.Cl [GW830263A] | 9.19 | – | – | Phenotype: Inactive; Curve_Description: None
CN(c1ccc(NC(=O)NCCN2CCOCC2)cc1)c1ccnc(Nc2ccc(CS(C)(=O)=O)cc2)n1.Cl [GW830365A] | 20.6 | – | – | Phenotype: Inactive; Curve_Description: None
CN(C)CCNC(=O)Nc1ccc(N(C)c2ccnc(Nc3ccc(CS(C)(=O)=O)cc3)n2)cc1.Cl [GW830900A] | 29.1 | – | – | Phenotype: Inactive; Curve_Description: None
NS(=O)(=O)c1ccc(Nc2cc(-c3cccc(O)c3)n[nH]2)cc1 [GW831090X] | 20.6 | – | – | Phenotype: Inactive; Curve_Description: None
NS(=O)(=O)c1ccc(Nc2cc(-c3ccc(O)c(F)c3)n[nH]2)cc1 [GW831091X] | – | 36.6 | Phenotype: Inactive; Curve_Description: None | –
Cc1ccc2c(-c3ccnc(Nc4ccc5c(c4)OCCO5)n3)c(-c3ccc(C(F)(F)F)cc3)nn2n1 [GW832467X] | – | – | Phenotype: Inactive; Curve_Description: None | Phenotype: Inactive; Curve_Description: None
Cc1ccc2c(-c3ccnc(Nc4ccccc4)n3)c(-c3ccc(F)cc3)nn2n1 [GW833373X] | – | – | Phenotype: Inactive; Curve_Description: None | Phenotype: Inactive; Curve_Description: None
COc1cc(Nc2ncc3c(C)nc(-c4cccc(C(F)(F)F)c4)n3n2)cc(OC)c1OC [GW837331X] | – | – | Phenotype: Inactive; Curve_Description: None | Phenotype: Inactive; Curve_Description: None
COc1cc2ncn(-c3cc(OCc4ccccc4C(F)(F)F)c(C(N)=O)s3)c2cc1OC [GW843682X] | – | – | Phenotype: Inactive; Curve_Description: None | Phenotype: Inactive; Curve_Description: None
COc1cc2ncn(-c3cc(OCc4ccccc4Cl)c(C(N)=O)s3)c2cc1OC [GW852849X] | – | – | Phenotype: Inactive; Curve_Description: None | Phenotype: Inactive; Curve_Description: None
NC(=O)c1sc(-n2cnc3ccc(C(F)(F)F)cc32)cc1OCc1ccccc1Br [GW853606X] | – | – | Phenotype: Inactive; Curve_Description: None | Phenotype: Inactive; Curve_Description: None
NC(=O)c1sc(-n2cnc3cc(C(F)(F)F)ccc32)cc1OCc1ccccc1Br [GW853609X] | – | – | Phenotype: Inactive; Curve_Description: None | Phenotype: Inactive; Curve_Description: None
Nc1ncc(-c2cccc(S(N)(=O)=O)c2)c2scc(-c3ccc(F)c(Cl)c3)c12 [GW856804X] | – | 36.6 | Phenotype: Inactive; Curve_Description: None | –
COc1cc(Nc2ncc3c(C)nc(-c4cccc(Oc5ccccc5)c4)n3n2)cc(OC)c1OC [GW861893X] | – | – | Phenotype: Inactive; Curve_Description: None | Phenotype: Inactive; Curve_Description: None
O=C(O[C@H]1CN[C@H](C#Cc2cc3ncnc(Nc4ccc(OCc5cccc(F)c5)c(Cl)c4)c3s2)C1)N1CCOCC1 [GW869810X] | 20.6 | – | – | Phenotype: Inactive; Curve_Description: None
Cc1nc(-c2ccccc2)n2nc(NCCCN3CCOCC3)ncc12 [GW874091X] | – | – | Phenotype: Inactive; Curve_Description: None | Phenotype: Inactive; Curve_Description: None
CCn1c(-c2nonc2N)nc2cncc(C(=O)NCCNC)c21 [GW876790X] | – | – | Phenotype: Inactive; Curve_Description: None | Phenotype: Inactive; Curve_Description: None
COc1cccc(Nc2nccc(-c3cnn4ncccc34)n2)c1 [PYRAZOLOPYRIDAZINE 1] | – | – | Phenotype: Inactive; Curve_Description: None | Phenotype: Inactive; Curve_Description: None
COc1cccc(-n2ncc3c(N/N=C/c4ccc(S(C)(=O)=O)cc4)ncnc32)c1 [PYRAZOLOPYRIMIDINE 2] | 18.3 | – | – | Phenotype: Inactive; Curve_Description: None
Fc1ccc(-c2ncn(CCCN3CCOCC3)c2-c2ccncc2)cc1 [SB-210313] | – | – | Phenotype: Inactive; Curve_Description: None | Phenotype: Activator; Curve_Description: None
